Data: paper PMC3368506 (Journal of the American Chemical Society, 2012)
Where two headings read alike, the source gives them in different places. One block for each compound: values may come before it.

Key:
[1] = target: Cu^2+–Aβ42 species (Homo sapiens, UniProt P05067); assay: H2O2 production, HRP/Amplex Red assay; format: biochemical; details: reducing conditions (sodium ascorbate)
[2] = test system: Neuro2A (N2A) cells; assay: Cytotoxicity, Alamar Blue cell viability assay; format: cell-based, Mouse
[3] = 1:1 metal:ligand, 50 μM each, ref [78], cited from earlier work
[4] = pH 7.4; 1:1 metal:ligand, 50 μM each; ref [78]; cited from earlier work

Sequence of Cu^2+–Aβ42 species (P05067 672-713 limits assumed): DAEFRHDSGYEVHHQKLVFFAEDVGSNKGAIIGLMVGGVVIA

SMILES: O=C(O)CN(CCN(CC(=O)O)CC(=O)O)CCN(CC(=O)O)CC(=O)O [DTPA, diethylenetriaminepentaacetic acid]
pCu (−log[Cu^2+]free) ([3]; pH 6.6): 9.7 | pCu (−log[Cu^2+]free) ([3]; pH 7.4): 10.7 | pZn (−log[Zn^2+]free) [4]: 9.3

SMILES: O=C(O)CN(CCN(CC(=O)O)CC(=O)O)CC(=O)O [EDTA, ethylenediaminetetraacetic acid]
Cell survival ([2]; up to 20 μM concentration): 90–95%

Second part, led by results:

Reduction of H2O2 production by Cu–Aβ42 species [1]: almost no effect
SMILES: Oc1c(I)cc(Cl)c2cccnc12 [CQ, clioquinol]
Cell survival, disaggregation conditions ([2]; Aβ42 fibrils 20 μM + compound 2 μM + Cu^2+ 20 μM): marked cell toxicity | Cell survival ([2]; concentrations >2 μM): < 30%

Reduction of H2O2 production by Cu–Aβ42 species [1]: dramatic reduction
SMILES: CN(Cc1ccccn1)Cc1ccccn1 [L*, N-methyl-N,N-bis(2-pyridylmethyl)amine]

Reduction of H2O2 production by Cu–Aβ42 species [1]: almost no effect
SMILES: c1cnc2c(c1)ccc1cccnc12 [phen, phenanthroline]
